Data as given in patent US20120245161A1 (SANOFI, priority 2009, published 2012).
Where “and” joins values, the source holds several entries; their conditions need not be identical. Equal entries are not always repeated. Structures can show the parent of a compound that is named as a salt.

Molecular target: T1, recombinant human beta tryptase (Homo sapiens, UniProt P20231)
T1 construct: made in house; host or cells: yeast cells
Test: beta-Tryptase inhibition, chromogenic enzyme assay (substrate S2366, read at 405 nm)
Type: biochemical
Conditions: Ki calculated from IC50: Ki=IC50/(1+[Substrate]/Km); 0.5 mM substrate, room temperature; read-out: Tryptase Ki
Procedure, shortened: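 Recombinant human beta tryptase (yeast-expressed; native lung enzyme also used), 50 ng/mL final, with 0.5 mM (2×Km) chromogenic substrate S2366; 30 min in the dark, room temperature, read at 405 nm. Compounds at 0.01-10 μM in duplicate for IC50; Ki=IC50/(1+[S]/Km).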

T1 sequence (P20231 31-275): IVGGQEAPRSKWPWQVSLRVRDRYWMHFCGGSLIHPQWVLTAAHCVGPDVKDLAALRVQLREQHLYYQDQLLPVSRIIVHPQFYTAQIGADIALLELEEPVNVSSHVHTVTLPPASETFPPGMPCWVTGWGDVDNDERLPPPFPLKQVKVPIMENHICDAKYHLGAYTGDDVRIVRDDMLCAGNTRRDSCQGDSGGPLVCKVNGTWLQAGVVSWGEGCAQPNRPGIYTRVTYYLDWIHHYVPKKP

Ki [nM] | Compound
6 | COCCn1cc(C(=O)N2CCC(c3cc(CN)ccc3F)CC2)c2c(-c3cncc(C)c3)cccc21 [Example 82, [4-(5-Aminomethyl-2-fluoro-phenyl)-piperidin-1-yl]-[1-(2-methoxy-ethyl)-4-(5-methyl-pyridin-3-yl)-1H-indol-3-yl]-methanone dihydrochloride]
25 | NCc1ccc(F)c(C2CCN(C(=O)c3cn(CCc4ccccn4)c4ccccc34)CC2)c1 [Example 40, [4-(5-Aminomethyl-2-fluoro-phenyl)-piperidin-1-yl]-[1-(2-pyridin-2-yl-ethyl)-1H-indol-3-yl]-methanone dihydrochloride]
62 | NCc1ccc(F)c(C2CCN(C(=O)c3cn(CCN4CCCCC4)c4ccccc34)CC2)c1 [Example 41, [4-(5-Aminomethyl-2-fluoro-phenyl)-piperidin-1-yl]-[1-(2-piperidin-1-yl-ethyl)-1H-indol-3-yl]-methanone dihydrochloride]
5 | COCCn1cc(C(=O)N2CCC(c3cc(CN)ccc3F)CC2)c2c(-c3ccnc(C)c3)cccc21 [Example 83, [4-(5-Aminomethyl-2-fluoro-phenyl)-piperidin-1-yl]-[1-(2-methoxy-ethyl)-4-(2-methyl-pyridin-4-yl)-1H-indol-3-yl]-methanone dihydrochloride]
11 | COCCn1cc(C(=O)N2CCC(c3cc(CN)ccc3F)CC2)c2c(-c3cncc(Cl)c3)cccc21 [Example 65, [4-(5-Aminomethyl-2-fluoro-phenyl)-piperidin-1-yl]-[4-(5-chloro-pyridin-3-yl)-1-(2-methoxy-ethyl)-1H-indol-3-yl]-methanone dihydrochloride]

Same assay, conditions: Tryptase Ki (nM), Ki calculated from IC50: Ki=IC50/(1+[Substrate]/Km); 0.5 mM substrate, room temperature

Compound | Ki
Cc1cccc2c(C(=O)N3CCC(c4cc(CN)ccc4F)CC3)cn(CCC3CCCCN3C)c12 (stereo not drawn) [Example 8, [4-(5-Aminomethyl-2-fluoro-phenyl)-piperidin-1-yl]-{7-methyl-1-[2-(1-methyl-piperidin-2-yl)-ethyl]-1H-indol-3-yl}-methanone hydrochloride] | 35 nM
COCCn1cc(C(=O)N2CCC(c3cc(CN)ccc3F)CC2)c2c(OC)cccc21 [Example 47, [4-(5-Aminomethyl-2-fluoro-phenyl)-piperidin-1-yl]-[4-methoxy-1-(2-methoxy-ethyl)-1H-indol-3-yl]-methanone hydrochloride] | 56 nM and 59 nM
NCc1ccc(F)c(C2CCN(C(=O)c3cn(CCOC(F)(F)F)c4c(Cl)cccc34)CC2)c1 [Example 87, hydrochloride] | 207 nM
CC(C)(O)CCn1cc(C(=O)N2CCC(c3cc(CN)ccc3F)CC2)c2ccccc21 [Example 50, [4-(5-Aminomethyl-2-fluoro-phenyl)-piperidin-1-yl]-[1-(3-hydroxy-3-methyl-butyl)-1H-indol-3-yl]-methanone hydrochloride] | 241 nM
Cc1cccc2c(C(=O)N3CCC(c4cc(CN)ccc4F)CC3)cn(CCN3CCOCC3)c12 [Example 3, [4-(5-Aminomethyl-2-fluoro-phenyl)-piperidin-1-yl]-[7-methyl-1-(2-morpholin-4-yl-ethyl)-1H-indol-3-yl]-methanone hydrochloride] | 109 nM
COCCn1cc(C(=O)N2CCC(c3cc(CN)ccc3F)CC2)c2c(-c3ccc(OC)cc3)cccc21 [Example 70, [4-(5-Aminomethyl-2-fluoro-phenyl)-piperidin-1-yl]-[1-(2-methoxy-ethyl)-4-(4-methoxy-phenyl)-1H-indol-3-yl]-methanone hydrochloride] | 21 nM
COCCn1cc(C(=O)N2CCC(c3cc(CN)ccc3F)CC2)c2cccc(C(F)F)c21 [Example 12, [4-(5-Aminomethyl-2-fluoro-phenyl)-piperidin-1-yl]-[7-difluoromethyl-1-(2-methoxy-ethyl)-1H-indol-3-yl]-methanone hydrochloride] | 26 nM
NCc1ccc(F)c(C2CCN(C(=O)c3cn(CCCF)c4c(OC(F)(F)F)cccc34)CC2)c1 [Example 34, [4-(5-Aminomethyl-2-fluoro-phenyl)-piperidin-1-yl]-[1-(3-fluoro-propyl)-7-trifluoromethoxy-1H-indol-3-yl]-methanone hydrochloride] | 1010 nM
COCCn1cc(C(=O)N2CCC(c3cc(CN)ccc3OCC(=O)OC)CC2)c2cccc(C)c21 [Example 23, (4-Aminomethyl-2-{1-[1-(2-methoxy-ethyl)-7-methyl-1H-indole-3-carbonyl]-piperidin-4-yl}-phenoxy)-acetic acid methyl ester hydrochloride] | 42 nM
COCCn1cc(C(=O)N2CCC(c3cc(CN)ccn3)CC2)c2cccc(C)c21 [Example 119, (4-Aminomethyl-3′,4′,5′,6′-tetrahydro-2′H-[2,4′]bipyridinyl-1′-yl)-[1-(2-methoxy-ethyl)-7-methyl-1H-indol-3-yl]-methanone hydrochloride] | 180 nM
NCc1ccc(F)c(C2CCN(C(=O)c3cn(CCOC(F)(F)F)c4ccccc34)CC2)c1 [Example 81, hydrochloride] | 224 nM
COCCn1cc(C(=O)N2CCC(c3cc(CN)ccc3F)CC2)c2c(NC(=O)c3ccncc3)cccc21 [Example 101, N-[3-[4-(5-Aminomethyl-2-fluoro-phenyl)-piperidine-1-carbonyl]-1-(2-methoxy-ethyl)-1H-indol-4-yl]-isonicotinamide hydrochloride] | 11 nM
Cc1cccc2c(C(=O)N3CCC(c4cc(CN)ccc4F)CC3)cn(CCOCCO)c12 [Example 21, [4-(5-Aminomethyl-2-fluoro-phenyl)-piperidin-1-yl]-{1-[2-(2-hydroxy-ethoxy)-ethyl]-7-methyl-1H-indol-3-yl}-methanone hydrochloride] | 28 nM
COCCn1cc(C(=O)N2CCC(c3cc(CN)ccc3OCC(N)=O)CC2)c2cccc(OC(F)(F)F)c21 [Example 32, 2-(4-Aminomethyl-2-{1-[1-(2-methoxy-ethyl)-7-trifluoromethoxy-1H-indole-3-carbonyl]-piperidin-4-yl}-phenoxy)-acetamide hydrochloride] | 1280 nM
COCCn1cc(C(=O)N2CCC(c3cc(CN)ccc3F)CC2)c2c(N(C)C)cccc21 [Example 77, [4-(5-Aminomethyl-2-fluoro-phenyl)-piperidin-1-yl]-[4-dimethylamino-1-(2-methoxy-ethyl)-1H-indol-3-yl]-methanone hydrochloride] | 57 nM
COCCn1cc(C(=O)N2CCC(c3cc(CN)ccc3F)CC2)c2cccc(C(F)(F)F)c21 [Example 11, [4-(5-Aminomethyl-2-fluoro-phenyl)-piperidin-1-yl]-[1-(2-methoxy-ethyl)-7-trifluoromethyl-1H-indol-3-yl]-methanone hydrochloride] | 56 nM
COCCn1cc(C(=O)N2CCC(c3cc(CN)ccc3F)CC2)c2c(-c3cccc(F)c3)cccc21 [Example 63, [4-(5-Aminomethyl-2-fluoro-phenyl)-piperidin-1-yl]-[4-(3-fluoro-phenyl)-1-(2-methoxyethyl)-1H-indol-3-yl]-methanone hydrochloride] | 46 nM
COCCn1cc(C(=O)N2CCC(c3cc(CN)ccc3F)CC2)c2c(NC(=O)C3CC4CCC3C4)cccc21 (stereo not drawn) [Example 98, Bicyclo[2.2.1]heptane-2-carboxylic acid [3-[4-(5-aminomethyl-2-fluoro-phenyl)-piperidine-1-carbonyl]-1-(2-methoxy-ethyl)-1H-indol-4-yl]-amide hydrochloride] | 147 nM
COCCn1cc(C(=O)N2CCC(c3cc(CN)ccc3F)CC2)c2c(OC(C)C)cccc21 [Example 68, [4-(5-Aminomethyl-2-fluoro-phenyl)-piperidin-1-yl]-[4-isopropoxy-1-(2-methoxy-ethyl)-1H-indol-3-yl]-methanone hydrochloride] | 35 nM
COCCn1cc(C(=O)N2CCC(c3cc(CN)ccc3F)CC2)c2c(NS(=O)(=O)c3cccnc3)cccc21 [Example 106, Pyridine-3-sulfonic acid [3-[4-(5-aminomethyl-2-fluoro-phenyl)-piperidine-1-carbonyl]-1-(2-methoxy-ethyl)-1H-indol-4-yl]-amide hydrochloride] | 149 nM
COCCn1cc(C(=O)N2CCC(c3cc(CN)ccc3F)CC2)c2c(NC(=O)c3cccc4c3OCC4)cccc21 [Example 120, 2,3-Dihydro-benzofuran-7-carboxylic acid [3-[4-(5-aminomethyl-2-fluoro-phenyl)-piperidine-1-carbonyl]-1-(2-methoxy-ethyl)-1H-indol-4-yl]-amide hydrochloride] | 3 nM
CCCCS(=O)(=O)Nc1cccc2c1c(C(=O)N1CCC(c3cc(CN)ccc3F)CC1)cn2CCOC [Example 107, Butane-1-sulfonic acid [3-[4-(5-aminomethyl-2-fluoro-phenyl)-piperidine-1-carbonyl]-1-(2-methoxy-ethyl)-1H-indol-4-yl]-amide hydrochloride] | 315 nM
Cc1cccc2c(C(=O)N3CCC(c4cc(CN)ccc4F)CC3)cn(CCO)c12 [Example 20, [4-(5-Aminomethyl-2-fluoro-phenyl)-piperidin-1-yl]-[1-(2-hydroxy-ethyl)-7-methyl-1H-indol-3-yl]-methanone hydrochloride] | 19 nM
COCCn1cc(C(=O)N2CCC(c3cc(CN)ccc3F)CC2)c2c(C)cccc21 [Example 44, [4-(5-Aminomethyl-2-fluoro-phenyl)-piperidin-1-yl]-[1-(2-methoxy-ethyl)-4-methyl-1H-indol-3-yl]-methanone hydrochloride] | 51 nM
COCCn1cc(C(=O)N2CCC(c3cc(CN)ccc3F)CC2)c2c(-c3ccc(OC(F)(F)F)cc3)cccc21 [Example 69, [4-(5-Aminomethyl-2-fluoro-phenyl)-piperidin-1-yl]-[1-(2-methoxy-ethyl)-4-(4-trifluoromethoxy-phenyl)-1H-indol-3-yl]-methanone hydrochloride] | 400 nM
